Assay [1] deals with HDAC1 (Homo sapiens (Human), UniProt Q13547). As to the kind of experiment: In vitro enzyme inhibition assay - HDAC (HDAC-Glo I/II), HDAC1. Format: biochemical. The conditions noted are these: read-out: HDAC IC50 (nM) HDAC 1. In short, it runs like this:
(§1)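 Eight compound concentrations (5-fold gradient; 1 mM DMSO stock) were assayed by HDAC-Glo I/II luminescence. IC50 was obtained by four-parameter fitting.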

Assay [2] has as its system DU145 cells. The assay is described as follows: In vitro cell inhibition assay - DU145 cell proliferation (CellTiter-Glo). As to conditions: Homo sapiens, DU-145, Du145 prostate cancer cell proliferation. It counts as cell-based. In short, it runs like this:
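Viability read-out was CellTiter-Glo luminescence after a 6-day, 37° C exposure of DU145 cells (1×10^3/well, 10% FBS RPMI-640) to 8 compound concentrations in 5-fold steps.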
Background: In ATP-based viability assays light output follows the ATP content of the culture.

The target of assay [3] is pan-HDAC. As to the kind of experiment: In vitro enzyme inhibition assay - HDAC (HDAC-Glo I/II), pan-HDAC. It counts as biochemical. In short, it runs like this:
as §1

Assay [4] deals with NCI-H526 cells. As to the kind of experiment: In vitro cell inhibition assay - NCI-H526 cell proliferation (CellTiter-Glo). Format: cell-based. The conditions noted are these: Homo sapiens, NCI-H526, 120 h, H526 small cell lung cancer cell proliferation, 5 days. In short, it runs like this: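 NCI-H526 cells plated at 1×10^3 per well overnight, then treated with 8 concentrations (5-fold dilutions) in RPMI-640 with 10% FBS for 5 days at 37° C., 5% CO2. Viable cells quantified by CellTiter-Glo luminescence; IC50 fitted from inhibition rates relative to no-inhibitor and no-cell controls.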

The subject of assay [5] is NCI-H1417 cells. The assay is described as follows: In vitro cell inhibition assay - H1417 cell proliferation (CellTiter-Glo). Format: cell-based. As to conditions: Homo sapiens, NCI-H1417, H1417 small cell lung cancer cell proliferation. A digest of the protocol: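 Cells exposed to 8 compound concentrations (5-fold dilutions) in BEGM with 10% FBS for 7 days at 37° C., 5% CO2. Viable cells measured by CellTiter-Glo luminescence; inhibition versus no-inhibitor and no-cell controls, IC50 fitted.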

Assay [6] addresses LSD1 (Homo sapiens (Human), UniProt O60341). The assay is described as follows: In vitro enzyme inhibition assay - LSD1 (HTRF). Format: biochemical. On the technique in general: Time-resolved FRET reads energy transfer from a long-lived donor to a nearby acceptor.
The target of assay [7] is HDAC8 (Homo sapiens (Human), UniProt Q9BY41). As to the kind of experiment: In vitro enzyme inhibition assay - HDAC (HDAC-Glo I/II), HDAC8. Format: biochemical. The conditions noted are these: read-out: HDAC IC50 (nM) HDAC 8. A digest of the protocol:
as §1

Assay [8] concerns NCI-H69 cells. As to the kind of experiment: In vitro cell inhibition assay - NCI-H69 cell proliferation (CellTiter-Glo). Format: cell-based. The conditions noted are these: Homo sapiens, NCI-H69, H69 small cell lung cancer cell proliferation. A digest of the protocol:
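Luminescence from CellTiter-Glo reagent served as the viability read-out after cells were exposed to compounds for 7 days at 37° C. Eight concentrations in a 5-fold series were tested in medium with 20% FBS. Inhibition was normalised to untreated and cell-free wells before IC50 fitting.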

Structures can show the parent of a compound that is named as a salt.

HDAC8, sequence (Q9BY41 whole entry): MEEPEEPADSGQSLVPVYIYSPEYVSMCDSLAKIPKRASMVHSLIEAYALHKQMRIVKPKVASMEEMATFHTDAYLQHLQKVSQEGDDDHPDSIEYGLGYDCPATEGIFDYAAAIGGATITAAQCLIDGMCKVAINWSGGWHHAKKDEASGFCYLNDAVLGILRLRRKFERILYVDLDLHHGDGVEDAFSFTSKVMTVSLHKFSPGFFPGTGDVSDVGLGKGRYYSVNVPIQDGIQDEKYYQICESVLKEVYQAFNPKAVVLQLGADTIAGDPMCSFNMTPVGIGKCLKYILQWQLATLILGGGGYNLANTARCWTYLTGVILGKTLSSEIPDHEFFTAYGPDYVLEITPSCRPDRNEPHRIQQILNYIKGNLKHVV
HDAC1, sequence (Q13547 whole entry): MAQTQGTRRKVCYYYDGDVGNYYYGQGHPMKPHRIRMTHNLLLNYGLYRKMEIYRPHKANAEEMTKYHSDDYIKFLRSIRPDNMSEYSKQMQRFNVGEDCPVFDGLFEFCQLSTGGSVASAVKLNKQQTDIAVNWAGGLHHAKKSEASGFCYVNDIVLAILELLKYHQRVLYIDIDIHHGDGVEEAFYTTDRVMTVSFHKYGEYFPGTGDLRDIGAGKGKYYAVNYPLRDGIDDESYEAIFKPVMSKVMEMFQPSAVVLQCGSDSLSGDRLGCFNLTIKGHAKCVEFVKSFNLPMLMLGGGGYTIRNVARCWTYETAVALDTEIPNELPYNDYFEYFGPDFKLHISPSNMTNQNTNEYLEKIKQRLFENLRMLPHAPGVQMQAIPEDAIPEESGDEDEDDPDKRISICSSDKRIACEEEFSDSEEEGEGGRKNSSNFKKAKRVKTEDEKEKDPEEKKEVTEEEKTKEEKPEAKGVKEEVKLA

The IC50 is the concentration needed to halve the response being measured. `COc1ccc(-c2c(C)nc(N3CCC(NCc4ccc(/C=C/C(=O)NO)cc4)CC3)c(C#N)c2-c2ccc(C#N)c(F)c2)cc1O` [Example 50, (E)-3-(4-(((1-(3-Cyano-4-(4-cyano-3-fluorophenyl)-5-(3-hydroxy-4-methoxyphenyl)-6-methylpyridin-2-yl)piperidin-4-yl)amino)methyl)phenyl)-N-hydroxyacrylamide formate]: the IC50 came out at 118 nM in assay [1]; 369 nM in assay [2]; 70.7 nM in assay [3]; 216 nM in assay [4]; 5.58 nM in assay [5]; 4.33 nM in assay [6]. The IC50 in assay [7] came to 170 nM; in assay [8], 163 nM.
On to `COc1ccc(-c2cnc(N3CCC(NCc4ccc(/C=C/C(=O)NO)cc4)CC3)c(C#N)c2-c2ccc(C#N)c(F)c2)cc1` [Example 52, (E)-3-(4-(((1-(3-Cyano-4-(4-cyano-3-fluorophenyl)-5-(4-methoxyphenyl)pyridin-2-yl)piperidin-4-yl)amino)methyl)phenyl)-N-hydroxyacrylamide hydrochloride], for which the IC50 in assay [1] was found to be 15.9 nM; in assay [2] it was 216 nM; in assay [3] it was 4.22 nM; in assay [4] it was 111 nM; in assay [5], 81.6 nM; in assay [6], 47.8 nM. For the same compound, the IC50 came out at 140 nM in assay [7] and 71 nM in assay [8].
As for `Cc1ccc(-c2cnc(N3CCC(NCc4ccc(/C=C/C(=O)NO)cc4)CC3)c(C#N)c2-c2ccc(C#N)c(F)c2)cc1O` [Example 102, (E)-3-(4-(((1-(3-Cyano-4-(4-cyano-3-fluorophenyl)-5-(3-hydroxy-4-methylphenyl)pyridin-2-yl)piperidin-4-yl)amino)methyl)phenyl)-N-hydroxyacrylamide formate], the IC50 in assay [1] worked out at 16.3 nM; in assay [2], 7.43 nM; in assay [3], 45.2 nM; in assay [4], 4.27 nM; in assay [5], 3.1 nM; in assay [6], 1.31 nM. The IC50 in assay [7] was determined as 178 nM; in assay [8] it was 0.36 nM.
Consider `COc1ccc(-c2cnc(N3CCC(NCc4ccc(/C=C/C(=O)NO)cn4)CC3)c(C#N)c2-c2ccc(C#N)c(F)c2)cc1O` [Example 104, (E)-3-(6-((1-(3-Cyano-4-(4-cyano-3-fluorophenyl)-5-(3-hydroxy-4-methoxyphenyl)pyridin-2-yl)piperidin-4-yl)amino)methyl) pyridin-3-yl)-N-hydroxyacrylamide formate], for which the IC50 in assay [1] came to 5.3 nM; in assay [2], 24.8 nM; in assay [3] it was 10.7 nM; in assay [4], 16.9 nM; in assay [5], 6.58 nM; in assay [6], 0.71 nM. The IC50 in assay [7] was found to be 70.1 nM; in assay [8] it was 2.29 nM.
For `COc1ccc(-c2cnc(N3CCC(NCc4ccc(/C=C/C(=O)NO)s4)CC3)c(C#N)c2-c2ccc(C#N)c(F)c2)cc1O` [Example 105, (E)-3-(5-(((1-(3-Cyano-4-(4-cyano-3-fluorophenyl)-5-(3-hydroxy-4-methoxyphenyl)pyridin-2-yl)piperidin-4-yl)amino)methyl)thiophen-2-yl)-N-hydroxyacrylamide formate], the IC50 in assay [1] is 120 nM; in assay [2], 317 nM; in assay [3], 114 nM; in assay [4] it was 124 nM; in assay [5], 4.48 nM; in assay [6], 1.24 nM. In addition, the IC50 in assay [7] amounted to 185 nM; in assay [8] it was 102 nM.
In the case of `COc1ccc(-c2cnc(N3CCC(NCc4cnc(/C=C/C(=O)NO)nc4)CC3)c(C#N)c2-c2ccc(C#N)c(F)c2)cc1O` [Example 106, (E)-3-(5-(((1-(3-Cyano-4-(4-cyano-3-fluorophenyl)-5-(3-hydroxy-4-methoxyphenyl)pyridin-2-yl)piperidin-4-yl)amino)methyl)pyrimidin-2-yl)-N-hydroxyacrylamide formate], the IC50 is 3.81 nM in assay [1]; 13.6 nM in assay [2]; 4.85 nM in assay [3]; 7.09 nM in assay [4]; 3.29 nM in assay [5]; 2.62 nM in assay [6]. Besides, the IC50 in assay [7] stood at 13.1 nM; in assay [8], 3.48 nM.
Turning to `COc1ccc(-c2cnc(N3CCC(NCc4ccc(/C=C/C(=O)NO)c(OC)c4)CC3)c(C#N)c2-c2ccc(C#N)c(F)c2)cc1O` [Example 108, (E)-3-(4-(((1-(3-Cyano-4-(4-cyano-3-fluorophenyl)-5-(3-hydroxy-4-methoxyphenyl)pyridin-2-yl)piperidin-4-yl)amino)methyl)-2-methoxyphenyl)-N-hydroxyacrylamide formate], the 50% inhibitory concentration (IC50) was 25.8 nM in assay [1]; 28.6 nM in assay [2]; 26.6 nM in assay [3]; 13.8 nM in assay [4]; 4.4 nM in assay [5]; 2.3 nM in assay [6]. In addition, the IC50 was 93.1 nM in assay [7] and 16 nM in assay [8].
Consider `Cc1noc2cc(-c3cnc(N4CCC(NCc5ccc(/C=C/C(=O)NO)cc5)CC4)c(C#N)c3-c3ccc(C#N)c(F)c3)c(F)cc12` [Example 110, (E)-3-(4-((1-(3-Cyano-4-(4-cyano-3-fluorophenyl)-5-(5-fluoro-3-methylbenzo[d]isoxazol-6-yl)pyridin-2-yl)piperidin-4-yl)amino)methyl) phenyl)-N-hydroxyacrylamide formate], for which the IC50 in assay [1] came to 156 nM; in assay [2], 187 nM; in assay [3], 57.3 nM; in assay [4] it was 127 nM; in assay [5], 2.7 nM; in assay [6], 1.05 nM. The IC50 in assay [7] worked out at 137 nM; in assay [8], 82.7 nM.
On to `N#Cc1ccc(-c2c(-c3ccc(C4CC4)c(O)c3)cnc(N3CCC(NCc4ccc(/C=C/C(=O)NO)cc4)CC3)c2C#N)cc1F` [Example 111, (E)-3-(4-((1-(3-Cyano-4-(4-cyano-3-fluorophenyl)-5-(4-cyclopropyl-3-hydroxyphenyl)pyridin-2-yl)piperidin-4-yl)amino)methyl) phenyl)-N-hydroxyacrylamide formate], for which the IC50 in assay [1] amounted to 83.1 nM; in assay [2], 14.2 nM; in assay [3], 65.3 nM; in assay [4], 16.2 nM; in assay [5] it was 1.98 nM; in assay [6], 1.56 nM. In addition, the figures for the IC50 in assay [7] and in assay [8] were 358 nM and 3.41 nM, respectively.
Consider `COc1ccc(-c2cnc(N3CCC(NCc4cnc(/C=C/C(=O)NO)s4)CC3)c(C#N)c2-c2ccc(C#N)c(F)c2)cc1O` [Example 112, (E)-3-(5-((1-(3-Cyano-4-(4-cyano-3-fluorophenyl)-5-(3-hydroxy-4-methoxyphenyl)pyridin-2-yl)piperidin-4-yl)amino)methyl) thiazol-2-yl)-N-hydroxyacrylamide formate], for which the IC50 in assay [1] is 26.3 nM; in assay [2], 86.8 nM; in assay [3] it was 26.9 nM; in assay [4], 63.5 nM; in assay [5], 4.14 nM; in assay [6], 2.66 nM. Also, the figures for the IC50 in assay [7] and in assay [8] were 81.4 nM and 32.7 nM, respectively.
Take `N#Cc1ccc(-c2cnc(N3CCC(NCc4ccc(/C=C/C(=O)NO)cc4)CC3)c(C#N)c2-c2ccc(C#N)c(F)c2)cc1O` [Example 113, (E)-3-(4-(((1-(3-Cyano-4-(4-cyano-3-fluorophenyl)-5-(4-cyano-3-hydroxyphenyl)pyridin-2-yl)piperidin-4-yl)amino)methyl)phenyl)-N-hydroxyacrylamide formate]: the IC50 in assay [1] is 17.3 nM; in assay [2] it was 130 nM; in assay [3], 25 nM; in assay [4], 80 nM; in assay [5] it was 29.8 nM; in assay [6] it was 2 nM. Besides, the IC50 in assay [7] is 72.7 nM; in assay [8], 76.3 nM.
As to `COc1ccc(-c2cnc(N3CCC(NCc4cccc(/C=C/C(=O)NO)c4)CC3)c(C#N)c2-c2ccc(C#N)c(F)c2)cc1O` [Example 114, (E)-3-(3-(3-Cyano-4-(4-cyano-3-fluorophenyl)-5-(3-hydroxy-4-methoxyphenyl)pyridin-2-yl)piperidin-4-yl)amino)methyl) phenyl)-N-hydroxyacrylamide formate], the IC50 in assay [1] amounted to 178 nM; in assay [2], 391 nM; in assay [3] it was 175 nM; in assay [4], 155 nM; in assay [5], 9.4 nM; in assay [6], 0.97 nM. For the same compound, the IC50 in assay [7] is 571 nM; in assay [8], 78.2 nM.

These data come from patent US20250304549A1, “HYDROXYAMIDE DERIVATIVE AND USE THEREOF” (SICHUAN HUIYU PHARMACEUTICAL CO., LTD., priority 2022, published 2025).
